Reference: article PMC9779571, “Guanidine Derivatives Containing the Chalcone Skeleton Are Potent Antiproliferative Compounds against Human Leukemia Cells” (International Journal of Molecular Sciences, 2022)
“And” between values parts separate entries of the source, which are not always exact repeats. Equal values may be shown once.

Assays:
[1] = test system: MOLT-3 cells; experiment: MTT cytotoxicity assay, MOLT-3; format: cell-based, human; conditions: Homo sapiens, MOLT-3, 72 h, means ± SEM
Excerpt: (§1) U-937, HL-60, MOLT-3, NALM-6, and SK-MEL-1 cells were from DSMZ (German Collection of Microorganisms and Cell Cultures, Braunschweig, Germany). U-937/Bcl-2 cells were kindly provided by Dr. Jacqueline Bréard (INSERM U749, Faculté de Pharmacie Paris-Sud, Châtenay-Malabry, France). The U-937 is a pro-monocytic, human promyelocytic leukemia cell line that was isolated from a histiocytic lymphoma. HL-60 is a human acute myeloid leukemia cell line. MOLT-3 is a human acute lymphoblastic leukemia cell line. NALM-6 is a human B cell precursor leukemia. SK-MEL-1 is a human melanoma cell line growing singly or in clumps (occasional giant, polynucleated cell) in suspension. Cells were cultured in RPMI 1640 medium containing 10% (v/v) heat-inactivated fetal bovine serum, 100 μg/mL streptomycin, and 100 U/mL penicillin, incubated at 37 °C in a humidified atmosphere containing 5% CO2 as described. The doubling times of the cell lines were 24 h in HL-60, 30 h in U-937, U-937/Bcl-2, 40 h in MOLT-3 and NALM-6, and several days in SK-MEL-1 cells. Human peripheral blood mononuclear cells (PBMC) were isolated from heparin-anticoagulated blood of healthy volunteers by centrifugation with Ficoll-Paque Plus (GE Healthcare Bio-Sciences AB, Uppsala, Sweden). PBMC were also stimulated with phytohemagglutinin (2 µg/mL) for 48 h before the experimental treatment. The trypan blue exclusion method was used for counting the cells by a hemocytometer with 95% viability in all the experiments. Compounds were dissolved in dimethyl sulfoxide (DMSO) and kept under dark conditions at 25 °C. […] The cytotoxicity of the synthetic compounds was evaluated by colorimetric 3-(4,5-dimethyl-2-thiazolyl-)-2,5-diphenyl-2H-tetrazolium bromide (MTT) assay as previously described. Briefly, cells (5000 per well) were incubated with increasing concentrations of compounds for 72 h into a 96-well plate. Then, the supernatants were removed and 0.5 mg/mL MTT was added and incubated for 4 h at 37 °C. Sodium dodecyl sulfate (10% w/v) in 0.05 M HCl was added to solubilize the reaction products and the absorbance was measured at 570 nm with a reference wavelength of […] using an ELISA reader (Bio-Rad, Hercules, CA, USA). The IC50 values (concentrations inducing a 50% inhibition of cell viability) were determined graphically for each experiment by a nonlinear regression using the curve fitting routine implemented within the software Prism 5.0 (GraphPad, La Jolla, CA, USA).

[2] = test system: U-937/Bcl-2 cells; experiment: MTT cytotoxicity assay, U-937/Bcl-2; format: cell-based, human; conditions: Homo sapiens, U-937, 72 h, means ± SEM
Excerpt: as §1

[3] = test system: U-937 cells; experiment: MTT cytotoxicity assay, U-937; format: cell-based; conditions: Homo sapiens, U-937, 72 h, means ± SEM
Excerpt: as §1

[4] = test system: SK-MEL-1 cells; experiment: MTT cytotoxicity assay, SK-MEL-1; format: cell-based, human; conditions: Homo sapiens, SK-MEL-1, 72 h, means ± SEM
Excerpt: as §1

[5] = test system: NALM-6 cells; experiment: MTT cytotoxicity assay, NALM-6; format: cell-based, human; conditions: for IC50: Homo sapiens, NALM-6, 72 h, 72 h, MTT, means ± SEM
Excerpt: as §1

[6] = test system: HL-60 cells; experiment: MTT cytotoxicity assay, HL-60; format: cell-based; conditions: Homo sapiens, HL-60, 72 h, means ± SEM
Excerpt: as §1

[7] = test system: U-937 leukemia cells; experiment: Cell cycle and sub-G1 analysis by flow cytometry (propidium iodide); format: cell-based, human; conditions: 24 h; for fold increase of sub-G1 cells over control / %G1 / %G2-M / %S / %Sub-G1: 10 µM; for fold increase of sub-G1 cells over control: U-937; for %G1 / %G2-M / %S / %Sub-G1: U-937, means ± S.E.; for cell cycle arrest: U-937, 10 µM
Description: Cells (2.5 × 10^5) were centrifuged for 10 min at 500× g, washed with cold PBS, fixed with ice-cold 75% ethanol and stored at −20 °C overnight. Samples were then centrifuged at 500× g for 10 min at 4 °C, washed with PBS, resuspended in 200 μL of PBS containing 100 μg/mL RNase and 50 μg/mL propidium iodide and incubated for 1 h in the dark. The DNA content was analyzed by flow cytometry with a BD FACSVerse^TM cytometer (BD Biosciences, San Jose, CA, USA). Apoptosis was also evaluated by flow cytometric analysis of double-staining annexin V-FITC and propidium iodide cells as previously described.

[8] = test system: six human cancer cell lines; experiment: MTT cytotoxicity assay, all cell lines assayed (summary statements); format: cell-based; conditions: 72 h, MTT
Excerpt: U-937, HL-60, MOLT-3, NALM-6, and SK-MEL-1 cells were from DSMZ (German Collection of Microorganisms and Cell Cultures, Braunschweig, Germany). U-937/Bcl-2 cells were kindly provided by Dr. Jacqueline Bréard (INSERM U749, Faculté de Pharmacie Paris-Sud, Châtenay-Malabry, France). The U-937 is a pro-monocytic, human promyelocytic leukemia cell line that was isolated from a histiocytic lymphoma. HL-60 is a human acute myeloid leukemia cell line. MOLT-3 is a human acute lymphoblastic leukemia cell line. NALM-6 is a human B cell precursor leukemia. SK-MEL-1 is a human melanoma cell line growing singly or in clumps (occasional giant, polynucleated cell) in suspension. Cells were cultured in RPMI 1640 medium containing 10% (v/v) heat-inactivated fetal bovine serum, 100 μg/mL streptomycin, and 100 U/mL penicillin, incubated at 37 °C in a humidified atmosphere containing 5% CO2 as described. […] The cytotoxicity of the synthetic compounds was evaluated by colorimetric 3-(4,5-dimethyl-2-thiazolyl-)-2,5-diphenyl-2H-tetrazolium bromide (MTT) assay as previously described. […] Sodium dodecyl sulfate (10% w/v) in 0.05 M HCl was added to solubilize the reaction products and the absorbance was measured at 570 nm with a reference wavelength of […] using an ELISA reader (Bio-Rad, Hercules, CA, USA). […]

| SMILES | IC50 [1] | IC50 [2] | IC50 [3] | IC50 [4] | IC50 [5] | IC50 [6] | fold increase of sub-G1 cells over control [7] | %G1 [7] | %G2-M [7] | %S [7] | %Sub-G1 [7] | cell cycle arrest [7] | cytotoxicity against the cancer cell lines assayed [8] | increase in cytotoxicity on substitution of p-tosyl-sulfonyl group (6b) by phenyl group ([5]; NALM-6, IC50 ratio 6b vs 6h) |
| --- | --- | --- | --- | --- | --- | --- | --- | --- | --- | --- | --- | --- | --- | --- |
| [N-]=[N+]=Nc1ccc(/C=C/C(=O)c2c(O)cccc2OCc2ccccc2)cc1 [Compound 3] | 7.4 ± 0.4 µM | > 30 µM | > 30 µM | > 30 µM | 11.6 ± 1.6 µM | > 30 µM |  |  |  |  |  |  |  |  |
| Cc1ccc(S(=O)(=O)NC(=Nc2ccc(/C=C/C(=O)c3c(O)cccc3OCc3ccccc3)cc2)NC(C)C)cc1 [Compound 6a] | 2.9 ± 1.1 µM | 2.9 ± 0.2 µM | 11.4 ± 6.5 µM | > 30 µM | 2.9 ± 0.5 µM | 3.7 ± 1.6 µM |  |  |  |  |  |  |  |  |
| Cc1ccc(S(=O)(=O)NC(=Nc2ccc(/C=C/C(=O)c3c(O)cccc3OCc3ccccc3)cc2)N(C(C)C)C(C)C)cc1 [Compound 6b] | 2 ± 0.7 µM | 11.7 ± 7 µM | 18.5 ± 9.6 µM | > 30 µM | 27 ± 0.8 µM | 20.5 ± 9.5 µM |  |  |  |  |  |  |  |  |
| Cc1ccc(S(=O)(=O)NC(=Nc2ccc(/C=C/C(=O)c3c(O)cccc3OCc3ccccc3)cc2)N(C)c2ccccc2)cc1 [Compound 6c] | 2.5 ± 0.2 µM | 4.2 ± 1.2 µM | 9.5 ± 5.3 µM | > 30 µM | 9.9 ± 3.1 µM | 4.2 ± 0.5 µM | ~ 10 fold | 37.4 ± 0.3 % | 11.4 ± 0.4% | 27.0 ± 0.7% | 23.5% and 23.5 ± 1.2 % | not caused by a significant cell cycle arrest in any phase |  |  |
| Cc1ccc(S(=O)(=O)NC(=Nc2ccc(/C=C/C(=O)c3c(O)cccc3OCc3ccccc3)cc2)N2CCCCC2)cc1 [Compound 6d] | 3.3 ± 0.6 µM | 24.6 ± 5.4 µM | > 30 µM | > 30 µM | 6.6 ± 1.2 µM | 28.5 ± 14.3 µM |  |  |  |  |  |  |  |  |
| Cc1ccc(S(=O)(=O)NC(=Nc2ccc(/C=C/C(=O)c3c(O)cccc3OCc3ccccc3)cc2)N2CCOCC2)cc1 [Compound 6e] | 3.2 ± 1.5 µM | 2.3 ± 0.9 µM | 5.4 ± 2.1 µM | 14.3 ± 5.7 µM | 3.1 ± 0.5 µM | 3.8 ± 1.1 µM | ~ 5 fold | 36.5 ± 2.3 % | 27% and 27.3 ± 2.0 % | 23.6 ± 0.5 % | 11.9% and 11.9 ± 0.2 % | induced an arrest at the G2-M phase |  |  |
| CCCCCCCCCCCCCCCCCCNC(=Nc1ccc(/C=C/C(=O)c2c(O)cccc2OCc2ccccc2)cc1)NS(=O)(=O)c1ccc(C)cc1 [Compound 6g] | > 30 µM | > 30 µM | > 30 µM | > 30 µM | > 30 µM | > 30 µM |  |  |  |  |  |  | not cytotoxic |  |
| CC(C)N(/C(=N/c1ccc(/C=C/C(=O)c2c(O)cccc2OCc2ccccc2)cc1)Nc1ccccc1)C(C)C [Compound 6h] | 4.3 ± 0.5 µM | 14 ± 6.6 µM | 10.6 ± 2.6 µM | 5.2 ± 1 µM | 5.4 ± 0.2 µM | 5.2 ± 0.9 µM |  | 53.7 ± 0.4% | 9.2 ± 0.5 % | 29.5 ± 0.3% | 7.2 ± 1.1 % | not caused by a significant cell cycle arrest in any phase |  | five-fold |
| O=C(/C=C/c1ccc(N=C(Nc2ccccc2)N2CCOCC2)cc1)c1c(O)cccc1OCc1ccccc1 [Compound 6j] | 1.8 ± 0.5 µM | 11.7 ± 3.4 µM | 8.6 ± 1.1 µM | 5.4 ± 0.8 µM | 4.1 ± 0.5 µM | 6.2 ± 1.7 µM |  | 51.3 ± 1.1% | 11.5 ± 0.1% | 32.0 ± 0.4% | 4.7 ± 0.6% |  |  |  |
| CN1CCN(C(=Nc2ccc(/C=C/C(=O)c3c(O)cccc3OCc3ccccc3)cc2)Nc2ccccc2)CC1 [Compound 6k] | 21.7 ± 6.5 µM | 14 ± 5.1 µM | 14 ± 1.1 µM | > 30 µM | 24.8 ± 3.3 µM | 11.4 ± 5.5 µM |  |  |  |  |  |  |  |  |
| COc1cccc2c1C(=O)c1c(O)c3c(c(O)c1C2=O)C[C@@](O)(C(=O)CO)C[C@@H]3O[C@H]1C[C@H](N)[C@H](O)[C@H](C)O1 [Doxorubicin, reference compound] |  |  | 0.1 µM | 0.3 ± 0.1 µM |  |  |  |  |  |  |  |  |  |  |
| COc1cc([C@@H]2c3cc4c(cc3[C@@H](O[C@@H]3O[C@@H]5CO[C@@H](C)O[C@H]5[C@H](O)[C@H]3O)[C@H]3COC(=O)[C@H]23)OCO4)cc(OC)c1O [Etoposide, reference compound] | 0.2 ± 0.1 µM |  | 1.8 ± 0.2 µM | 9 ± 3 µM |  | 0.6 ± 0.2 µM |  |  |  |  |  |  |  |  |
